Measured values as given in patent US20230381321A1, “CAMPTOTHECIN CONJUGATES” (priority 2022, published 2023).
Where two headings read alike, the source gives them in different places.

Key:
Format in all cases: cell-based
[1] = test system: anaplastic large cell lymphoma cells (Karpas299); test: In vitro potency (CellTiter-Glo, 96 h) on Karpas299; details: read-out: Karpas299 IC50
Method: (§1) In vitro potency was assessed on multiple cancer cell lines. All cell lines were authenticated by STR profiling at IDEXX Bioresearch and cultured for no more than 2 months after resuscitation. Cells cultured in log-phase growth were seeded for 24 hours in 96-well plates containing […] RPMI 1640 supplemented with 20% FBS. Serial dilutions of antibody-drug conjugates in cell culture media were prepared at 4x working concentrations, and 50 μL of each dilution was added to the 96-well plates. Following addition of test articles, cells were incubated with test articles for 4 days at […]. After 96 hours, growth inhibition was assessed by CellTiterGlo® (Promega, Madison, WI) and luminescence was measured on a plate reader.
(§2) Cell viability was determined by CellTiter-Glo staining after 96h exposure to ADC. ND=Not Determined. In the following tables, “Ex_” refers to a drug linker number. For example, “Ag4-Ex_4a” refers to a conjugate of an Ag4 antibody with drug linker 4a.

[2] = test system: breast cancer cells (MDA-MB-231); test: In vitro potency (CellTiter-Glo, 96 h) on MDA-MB-231; details: read-out: MDAMB 231 IC50
Method: as §1, §2

[3] = In vitro potency (CellTiter-Glo, 96 h) on Ls174T; details: read-out: Ls174T IC50
Method: as §1, §2

[4] = test system: anaplastic large cell lymphoma cells (DEL); test: In vitro potency (CellTiter-Glo, 96 h) on DEL; details: read-out: DEL IC50
Method: as §1, §2

[5] = test system: B-lymphocyte cancer cells (SU-DHL4); test: In vitro potency (CellTiter-Glo, 96 h) on SU-DHL4; details: read-out: SU-DHL-4 IC50
Method: as §1, §2

[6] = test system: renal carcinoma cells (786-O); test: In vitro potency (CellTiter-Glo, 96 h) on 786-O; details: read-out: 786-O IC50
Method: as §1, §2

[7] = test system: anaplastic large cell lymphoma cells (DELBVR); test: In vitro potency (CellTiter-Glo, 96 h) on DELBVR; details: read-out: DELBVR IC50
Method: as §1, §2

[8] = test system: Hodgkin's lymphoma cells (L540cy); test: In vitro potency (CellTiter-Glo, 96 h) on L540cy; details: read-out: L540cy IC50
Method: as §1, §2

melanoma cells (A2058) = test: In vitro potency (CellTiter-Glo, 96 h) on A2058; details: read-out: A2058 IC50
Method: as §1, §2

[9] = test system: acute myeloid leukemia cells (MOLM-13); test: In vitro potency (CellTiter-Glo, 96 h) on MOLM-13; details: read-out: MOLM-13 IC50
Method: as §1, §2

[10] = test system: pancreatic cancer cells (BxPC3); test: In vitro potency (CellTiter-Glo, 96 h) on BxPC3; details: read-out: BxPC3 IC50
Method: as §1, §2

[11] = test system: non-small-cell lung cancer cells (Calu1); test: In vitro potency (CellTiter-Glo, 96 h) on Calu1; details: read-out: Calu1 IC50
Method: as §1, §2

[12] = CPT free drugs, CellTiter-Glo after 96 h exposure
[13] = Homo sapiens, KARPAS-299, 96 h, CPT free drugs, CellTiter-Glo after 96 h exposure
[14] = Homo sapiens, MDA-MB-231, 96 h, CPT free drugs, CellTiter-Glo after 96 h exposure
[15] = Homo sapiens, LS174T, CPT free drugs, CellTiter-Glo after 96 h exposure
[16] = 96 h, CPT free drugs, CellTiter-Glo after 96 h exposure
[17] = Homo sapiens, SU-DHL-4, 96 h, CPT free drugs, CellTiter-Glo after 96 h exposure
[18] = Homo sapiens, 786-0, 96 h, CPT free drugs, CellTiter-Glo after 96 h exposure
[19] = L540cy, 96 h, CPT free drugs, CellTiter-Glo after 96 h exposure
[20] = Homo sapiens, A2058, 96 h, CPT free drugs, CellTiter-Glo after 96 h exposure
[21] = Homo sapiens, MOLM-13, 96 h, CPT free drugs, CellTiter-Glo after 96 h exposure
[22] = Homo sapiens, BXPC-3, 96 h, CPT free drugs, CellTiter-Glo after 96 h exposure
[23] = Homo sapiens, Calu-1, 96 h, CPT free drugs, CellTiter-Glo after 96 h exposure

Structure (SMILES) | IC50 [1, 13] [nM] | IC50 [2, 14] [nM] | IC50 [3, 15] [nM] | IC50 [4, 16] [nM] | IC50 [5, 17] [nM] | IC50 [6, 18] [nM] | IC50 [7, 16] [nM] | IC50 [8, 19] [nM] | IC50 (melanoma cells (A2058); [20]) [nM] | IC50 [9, 21] [nM] | IC50 [11, 23] [nM] | IC50 ([1]; Homo sapiens, KARPAS-299, 96 h) [nM] | IC50 ([2]; Homo sapiens, MDA-MB-231, 96 h) [nM] | IC50 ([3]; Homo sapiens, LS174T, 96 h) [nM] | IC50 ([4]; 96 h) [nM] | IC50 ([5]; Homo sapiens, SU-DHL-4, 96 h) [nM] | IC50 ([6]; Homo sapiens, 786-0, 96 h) [nM] | IC50 ([8]; L540cy, 96 h) [nM] | IC50 (melanoma cells (A2058); Homo sapiens, A2058, 96 h) [nM] | IC50 ([9]; Homo sapiens, MOLM-13, 96 h) [nM] | other results
CC[C@@]1(O)C(=O)OCc2c1cc1n(c2=O)Cc2c-1nc1cc3c(cc1c2CN)C(C)CO3 (single isomer, unassigned) [Compound 11a] | – | – | – | – | – | – | – | – | – | – | – | – | – | – | – | – | – | – | – | – | IC50 [1, 12]: 13 nM; IC50 [2, 12]: 100 nM; IC50 [3, 12]: > 1000 nM; IC50 [4, 12]: 2 nM; IC50 [5, 12]: 3 nM; IC50 [6, 12]: 15 nM; IC50 [7, 12]: 4 nM; IC50 [8, 12]: 6 nM; IC50 (melanoma cells (A2058); [12]): 5 nM; IC50 [9, 12]: 14 nM; IC50 [10, 12]: 23 nM; IC50 [11, 12]: 131 nM
CC[C@@]1(O)C(=O)OCc2c1cc1n(c2=O)Cc2c-1nc1ccc3c(c1c2CN)COC3 [Compound 2aq] | 7 | 12 | 12 | 2 | 5 | 11 | 3 | 4 | 18 | 39 | 1 | – | – | – | – | – | – | – | – | – | IC50 [10, 22]: 27 nM
CC[C@@]1(O)C(=O)OCc2c1cc1n(c2=O)Cc2c-1nc1cc3c(cc1c2CN)CCS3 [Compound 2ar] | 29 | 14 | 14 | 7 | 13 | 26 | 5 | 4 | 7 | 258 | 26 | – | – | – | – | – | – | – | – | – | IC50 [10, 22]: 43 nM
CC[C@@]1(O)C(=O)OCc2c1cc1n(c2=O)Cc2c-1nc1cc(F)c3c(c1c2CN)CCC3 [Compound 2as] | 3 | 1 | 2 | 1 | 2 | 3 | 1 | 1 | 3 | 51 | 4 | – | – | – | – | – | – | – | – | – | IC50 [10, 22]: 5 nM
CC[C@@]1(O)C(=O)OCc2c1cc1n(c2=O)Cc2c-1nc1cc3c(c(Br)c1c2CN)OCO3 [Compound 5c] | – | – | – | – | – | – | – | – | – | – | – | 1 | 2 | 6 | 0.3 | 0.5 | 1 | 0.8 | 5 | 2 | IC50 ([10]; Homo sapiens, BXPC-3, 96 h): 8 nM; IC50 ([11]; Homo sapiens, Calu-1, 96 h): 4 nM
CC[C@@]1(O)C(=O)OCc2c1cc1n(c2=O)Cc2c-1nc1cc(F)c(C)c(-c3cccs3)c1c2CN [Compound 6n] | 24 | 70 | 47 | 6 | 13 | – | 7 | 17 | 16 | 30 | 56 | – | – | – | – | – | – | – | – | – | –
CC[C@@]1(O)C(=O)OCc2c1cc1n(c2=O)Cc2c-1nc1cc(F)c(C)c(-c3ccco3)c1c2CN [Compound 6o] | 8 | 35 | 9 | 2 | 4 | – | 3 | 5 | 4 | 14 | 26 | – | – | – | – | – | – | – | – | – | –
CC[C@@]1(O)C(=O)OCc2c1cc1n(c2=O)Cc2c-1nc1cc(F)c(C)c(-c3ccoc3)c1c2CN [Compound 6p] | 3 | 10 | 5 | 0.9 | 1 | – | 2 | 2 | 2 | 3 | 8 | – | – | – | – | – | – | – | – | – | –
CC[C@@]1(O)C(=O)OCc2c1cc1n(c2=O)Cc2c-1nc1cc3c(cc1c2CNCCOC)OCO3 [Compound 7ag] | – | – | – | – | – | – | – | – | – | – | – | 1 | 9 | 3 | 0.3 | 0.8 | 0.9 | 0.9 | 0.6 | 2 | IC50 ([7]; 96 h): 0.3 nM; IC50 ([11]; Homo sapiens, Calu-1, 96 h): 6 nM
CC[C@@]1(O)C(=O)OCc2c1cc1n(c2=O)Cc2c-1nc1cc3c(cc1c2CNC1CCOC1)OCO3 (stereo partly drawn) [Compound 7ah] | – | – | – | – | – | – | – | – | – | – | – | 1 | 6 | 2 | 0.2 | 0.5 | 0.8 | 0.8 | 0.5 | 0.9 | IC50 ([7]; 96 h): 0.2 nM; IC50 ([11]; Homo sapiens, Calu-1, 96 h): 10 nM
CC[C@@]1(O)C(=O)OCc2c1cc1n(c2=O)Cc2c-1nc1cc3c(cc1c2CNC(=O)OCc1ccc(NC(=O)[C@H](CCCCN)NC(=O)[C@@H](NC(=O)CCOCCOCCOCCOCCNC(=O)CCN2C(=O)C=CC2=O)C(C)C)cc1)CCO3 [Compound 14, [4-[[(2S)-6-amino-2-[[(2S)-2-[3-[2-[2-[2-[2-[3-(2,5-dioxopyrrol-1-yl)propanoylamino]ethoxy]ethoxy]ethoxy]ethoxy]propanoylamino]-3-methyl-butanoyl]amino]hexanoyl]amino]phenyl]methyl N-[[(5S)-5-ethyl-5-hydroxy-6,10-dioxo-7,20-dioxa-11,24-diazahexacyclo[11.11.0.02,11.04,9.015,23.017,21]tetracosa-1(13),2,4(9),14,16,21,23-heptaen-14-yl]methyl]carbamate;2,2,2-trifluoroacetic acid] | – | – | – | – | – | – | – | – | – | – | – | – | – | – | – | – | – | – | – | – | IC50 [1, 12]: 4 nM; IC50 [2, 12]: 5 nM; IC50 [3, 12]: 3 nM; IC50 [5, 12]: 1 nM; IC50 [6, 12]: 4 nM; IC50 [7, 12]: 1 nM; IC50 [8, 12]: 2 nM; IC50 (melanoma cells (A2058); [12]): 2 nM; IC50 [9, 12]: 22 nM; IC50 [10, 12]: 6 nM; IC50 [11, 12]: 9 nM
CC[C@@]1(O)C(=O)OCc2c1cc1n(c2=O)Cc2c-1nc1cc3c(cc1c2CNC(=O)CO)CCO3 [Compound 15c, (S)-N-((12-ethyl-12-hydroxy-8,11-dioxo-2,3,6,9,11,12-hexahydro-8H-furo [3,2 g]pyrano[3′,4′:6,7]indolizino[1,2-b]quinolin-5-yl)methyl)-2-hydroxyacetamide] | 22 | 69 | > 1000 | 1 | 3 | 22 | 3 | 10 | 6 | 18 | 184 | – | – | – | – | – | – | – | – | – | –
CC[C@@]1(O)C(=O)OCc2c1cc1n(c2=O)Cc2c-1nc1cc(F)c(C)c(C#N)c1c2CN [Compound 16] | – | – | – | – | – | – | – | – | – | – | – | 7 | 38 | 6 | 1 | 3 | 8 | 5 | 3 | 30 | IC50 ([7]; 96 h): 1 nM; IC50 ([11]; Homo sapiens, Calu-1, 96 h): 67 nM
